Where two headings read alike, the source gives them in different places.
Experiments:
human IDO = human IDO (Homo sapiens, UniProt P14902); test: Cell based IDO/kynurenine assay in IDO-293-T-Rex cells; conditions: kynurenine production, read-out: hIDO EC50
Method: 293-T-REx™ cells (Invitrogen) constitutively express a tet operator binding repressor protein and are maintained in DMEM, 10% FBS, 1× Penicillin+Streptomycin, 2 mM L-glutamine, 5 μg/mL blasticidin at 37° C. with a 5% CO2 in air atmosphere and typically split prior to confluency. Cells were passed by splitting the culture 1/10—by removing media by aspiration, washing 1× with PBS, incubating with 0.25% trypsin/EDTA until the cells detach, disbursing the cells in fresh growth media, and plating at 1/10 dilutions in fresh growth media. For long term cryopreservation, cells are detached from the plate as described above, collected by centrifugation, resuspended in freeze medium (growth medium, 10% DMSO), stored in 1.8 mL cyropreservation vials (˜2−5×10^6 cells per vial), in liquid nitrogen vapor storage tanks.
IDOl-expressing 293-T-Rex™ cell lines were generated by stable transfection of plasmid pcDNA-tetO-IDO expressing human IDO or murine IDO under the control of the doxycycline-inducible CMV-tet promoter. Transfected cells were selected in DBZ medium (DMEM, 10% FBS, 1× Penicillin+Streptomycin, 2 mM L-glutamine, 5 μg/mL blasticidin and 25 μg/ml Zeocin) at 37° C. with a 5% CO2 in air atmosphere. Individual clones were isolated by limiting dilution cloning from these populations.
[…]. The cells incubated in Neutral medium serve as negative control of the assay. The cells incubated in Induction medium and without inhibitor serve as the positive control of the assay. The incubation is carried out for 16 h at 37° C. in a cell culture incubator. 200 μL of medium are transferred to U-bottom polypropylene 96-well plates containing 25 μL of 30% TCA, incubated 30 minutes at 60° C. and centrifuged at 3400 g for 5 minutes. 150 μL of the clear supernatant is transferred to a polystyrene 96-well plate containing 50 μL of 4% (w/v) of p-dimethylaminobenzaldehyde in acetic acid, incubated for 10 min. Kynurenine concentration is determined by measuring the absorbance at 480 nm.
The conditions of the assay were as described in the examples.

[1] = biological target: purified human IDO protein (Homo sapiens, UniProt P14902); test: Enzymatic IDO assay (kynurenine production, absorbance 480 nm); conditions: enzymatic activity
purified human IDO protein, sequence (P14902 whole entry P110S/E119G): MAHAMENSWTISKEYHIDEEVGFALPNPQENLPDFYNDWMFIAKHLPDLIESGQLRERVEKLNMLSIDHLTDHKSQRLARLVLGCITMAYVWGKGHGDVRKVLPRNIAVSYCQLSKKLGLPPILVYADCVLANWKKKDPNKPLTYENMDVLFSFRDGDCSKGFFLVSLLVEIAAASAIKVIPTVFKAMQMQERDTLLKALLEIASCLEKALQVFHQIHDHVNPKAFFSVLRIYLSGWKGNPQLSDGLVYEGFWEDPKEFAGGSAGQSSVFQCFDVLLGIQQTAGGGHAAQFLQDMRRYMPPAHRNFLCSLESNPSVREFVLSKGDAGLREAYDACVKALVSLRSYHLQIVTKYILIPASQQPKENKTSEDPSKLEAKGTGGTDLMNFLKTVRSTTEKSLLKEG

[2] = Table 15, 293T cells expressing human IDO
[3] = hIDO IC50, Table 15, recombinant human IDO
[4] = 293T cell line stably expressing human IDO, values reported in ranges
[5] = hIDO IC50, recombinant human IDO, values reported in ranges
[6] = read-out: hIDO IC50, recombinant human IDO, values reported in ranges
[7] = hIDO IC50, Table 16, recombinant human IDO

human IDO, sequence (P14902 whole entry): as the sequence (P14902 whole entry P110S/E119G) above, with S110P, G119E counted along it

SMILES	EC50 (human IDO; [4])	IC50 [1, 5]	also measured
NOC(COCc1ccccc1)c1ccccc1 (stereo not shown) [compound 1933, O-(2-(benzyloxy)-1-phenylethyl)hydroxylamine]			EC50 (human IDO; [2]): < 10 µM; IC50 [1, 3]: < 10 µM
CSC(=S)NCCCCCCc1c[nH]c2ccccc12 [compound 27, Methyl 6-(1H-indol-3-yl)hexylcarbamodithioate]	100 to 1000 µM	100 to 1000 µM	
S=C(NCCc1c[nH]c2ccccc12)SCCc1ccc2c(c1)OCCO2 [compound 53, 2-(2,3-Dihydrobenzo[b][1,4]dioxin-6-yl)ethyl 2-(1H-indol-3-yl)ethyl-carbamodithioate]	20 to 100 µM	100 to 1000 µM	
CSC(=S)NC(C)(C)Cc1c[nH]c2ccccc12 [compound 28, Methyl 1-(1H-indol-3-yl)-2-methylpropan-2-ylcarbamodithioate]	20 to 100 µM	100 to 1000 µM	
Oc1ccccc1C(=S)NCc1ccccc1 [compound 656, N-Benzyl-2-hydroxybenzothioamide]	20 to 100 µM	100 to 1000 µM	
S=C(NCCc1noc2ccccc12)SCc1ccc2ccccc2c1 [compound 58]	20 to 100 µM		IC50 [1, 6]: 100 to 1000 µM
S=C1OCCN1Cc1ccc2ccccc2c1 [compound 786, 3-(Naphthalen-2-ylmethyl)oxazolidine-2-thione]		100 to 1000 µM	
CSC(=S)NCCc1cccc(Cl)c1 [compound 14]	100 to 1000 µM		IC50 [1, 6]: 100 to 1000 µM
O=C1C(CSC(=S)Nc2ccccc2)NC(=S)N1c1ccccc1 (stereo not shown) [compound 151, (5-oxo-1-phenyl-2-thioxoimidazolidin-4-yl)methyl phenylcarbamodithioate]	100 to 1000 µM	100 to 1000 µM	
S=C(NCCc1c[nH]c2ccccc12)SCCc1ccccc1Cl [compound 21, 2-Chlorophenethyl 2-(1H-indol-3-yl)ethylcarbamodithioate]	100 to 1000 µM	100 to 1000 µM	
Oc1cc(O)nc(SCc2ccccc2)n1 [compound 222, 2-(benzylthio)pyrimidine-4,6-diol]	20 to 100 µM	100 to 1000 µM	
NOCc1cc(Cl)ccc1-c1cccs1 [compound 1931, O-(5-chloro-2-(thiophen-2-yl)benzyl)hydroxylamine]			EC50 (human IDO; [2]): < 10 µM; IC50 [1, 3]: < 10 µM
O=C(Cc1ccc2ccccc2c1)NO [compound 827, N-hydroxy-2-(naphthalen-2-yl)acetamide]	20 to 100 µM	100 to 1000 µM	
S=C(NCCc1c[nH]c2ccccc12)SCCc1c[nH]c2ccccc12 [compound 30, 2-(1H-Indol-3-yl)ethyl 2-(1H-indol-3-yl)ethylcarbamodithioate]	20 to 100 µM	100 to 1000 µM	
S=C(NCc1ccc2ccccc2c1)Nc1nccs1 [compound 591, 1-(naphthalen-2-ylmethyl)-3-(thiazol-2-yl)thiourea]		100 to 1000 µM	
Cc1ccc(SC(=S)Nc2ccccc2)cc1 [compound 142, p-tolyl phenylcarbamodithioate]	100 to 1000 µM	< 20 µM	
CSC(=S)NCCc1c[nH]c2ccc(Cl)cc12 [compound 32]	20 to 100 µM		IC50 [1, 6]: 100 to 1000 µM
CC(CC(=O)O)c1cccc([N+](=O)[O-])c1 (stereo not shown) [compound 282, 3-(3-nitrophenyl)butanoic acid]	1000 to 10000 µM	100 to 1000 µM	
Nc1cc(S(=O)O)c2cccnc2c1O [compound 309, 7-amino-8-hydroxyquinoline-5-sulfinic acid]	100 to 1000 µM	20 to 100 µM	
OCCc1c[nH]c2ccccc12 [compound 606, 2-(1H-indol-3-yl)ethanol]		100 to 1000 µM	
Cc1cc2ccccc2cc1CCSC(=S)NCCc1c[nH]c2ccccc12 [compound 47, 2-(3-methylnaphthalen-2-yl)ethyl 2-(1H-indol-3-yl)ethylcarbamodithioate]	20 to 100 µM	100 to 1000 µM	
COc1ccc(CCSC(=S)NCCc2c[nH]c3ccccc23)cc1 [compound 2, 4-Methoxyphenethyl 2-(1H-indol-3-yl)ethylcarbamodithioate]	100 to 1000 µM	100 to 1000 µM	
Cn1[nH]c(=O)c(=O)nc1SCc1ccc2ccccc2c1 [compound 682, 2-Methyl-3-(naphthalen-2-ylmethylthio)-1,2-dihydro-1,2,4-triazine-5,6-dione]	100 to 1000 µM	100 to 1000 µM	
CCC(CC)C1NC(C(=O)O)Cc2c1[nH]c1ccccc21 (stereo not shown) [compound 525, 1-(pentan-3-yl)-2,3,4,9-tetrahydro-1H-pyrido[3,4-b]indole-3-carboxylic acid]		100 to 1000 µM	
NOC(CN1CCOCC1)c1ccccc1 (stereo not shown) [compound 1936, O-(2-morpholino-1-phenylethyl)hydroxylamine]			IC50 [1, 3]: 10 to 100 µM
S=C(NCCc1c[nH]c2ccccc12)SCCc1cccc(Cl)c1 [compound 8, 3-Chlorophenethyl 2-(1H-indol-3-yl)ethylcarbamodithioate]	100 to 1000 µM	100 to 1000 µM	

SMILES	EC50 (human IDO; [4])	IC50 [1, 5]	also measured
O=C1C=C(O)C(=O)c2nc(O)ccc21 [compound 320, 2,7-dihydroxyquinoline-5,8-dione]	1000 to 10000 µM	< 20 µM	
O=C(O)CCn1[nH]c(=O)c2ccccc21 [compound 267, 3-(3-oxo-2,3-dihydro-1H-indazol-1-yl)propanoic acid]		100 to 1000 µM	
CSC(=S)NCCc1ccncc1 [compound 69, Methyl 2-(pyridin-4-yl)ethylcarbamodithioate]		100 to 1000 µM	
CNC(=O)[C@@H](ON)c1ccccc1 [compound 2033, (S)-2-(aminooxy)-N-methyl-2-phenylacetamide]			IC50 [1, 3]: < 10 µM
S=C(NCc1c[nH]c2ccccc12)Nc1nccs1 [compound 568, 1-((1H-indol-3-yl)methyl)-3-(thiazol-2-yl)thiourea]		100 to 1000 µM	
NO[C@@H](CCO)c1ccccc1 [compound 1883, (S)-3-(aminooxy)-3-phenylpropan-1-ol]			IC50 [1, 3]: 100 to 1000 µM
CC(=O)NCC(ON)c1ccccc1 (stereo not shown) [compound 1899, N-(2-(aminooxy)-2-phenylethyl)acetamide]			IC50 [1, 3]: 100 to 1000 µM
Oc1noc(O)c1-c1ccccc1 [compound 707, 4-phenylisoxazole-3,5-diol]		100 to 1000 µM	
NCCC(ON)c1ccccc1 (stereo not shown) [compound 1877, 3-(aminooxy)-3-phenylpropan-1-amine]			IC50 [1, 3]: 10 to 100 µM
S=C1OCCN1Cc1ccccc1 [compound 81, 3-Benzyloxazolidine-2-thione]		100 to 1000 µM	
S=C(NCCCc1c[nH]c2ccccc12)c1ccccc1 [compound 673, N-(3-(1H-indol-3-yl)propyl)benzothioamide]		100 to 1000 µM	
CNCC(ON)c1ccccc1 (stereo not shown) [compound 1902, 2-(aminooxy)-N-methyl-2-phenylethanamine]			IC50 [1, 3]: 100 to 1000 µM
NOC(CCC(=O)NC1CCCCC1)c1ccccc1 (stereo not shown) [compound 1901, 4-(aminooxy)-N-cyclohexyl-4-phenylbutanamide]			IC50 [1, 3]: 100 to 1000 µM
O=C(Cc1ccccc1)NO [compound 889, N-hydroxy-2-phenylacetamide]		100 to 1000 µM	
Oc1ccc(Cc2ccccc2)c2cccnc12 [compound 664, 5-benzylquinolin-8-ol]		100 to 1000 µM	
CNC(=O)[C@H](ON)c1ccccc1 [compound 2034, (R)-2-(aminooxy)-N-methyl-2-phenylacetamide]			IC50 [1, 3]: 100 to 1000 µM
NOc1ccccc1 [compound 1900, O-phenylhydroxylamine]			IC50 [1, 7]: 10 to 100 µM
Nc1ccccc1NC(=O)CCc1c[nH]c2ccccc12 [compound 592, N-(2-aminophenyl)-3-(1H-indol-3-yl)propanamide]		100 to 1000 µM	
NO[C@H](Cc1ccccc1)C(=O)O [compound 1690, (R)-2-(aminooxy)-3-phenylpropanoic acid]			IC50 [1, 7]: 100 to 1000 µM
CC(C)(C)OC(=O)NCC(ON)c1ccccc1 (stereo not shown) [compound 1876, tert-butyl 2-(aminooxy)-2-phenylethylcarbamate]			IC50 [1, 3]: 100 to 1000 µM
CNCCC(ON)c1ccccc1 (stereo not shown) [compound 1904, 3-(aminooxy)-N-methyl-3-phenylpropan-1-amine]			IC50 [1, 3]: 100 to 1000 µM
S=C1SCCCN1Cc1ccccc1 [compound 77, 3-Benzyl-1,3-thiazinane-2-thione]		100 to 1000 µM	
NOC(CCN1CCOCC1)c1ccccc1 (stereo not shown) [compound 1929, O-(3-morpholino-1-phenylpropyl)hydroxylamine]			IC50 [1, 3]: 100 to 1000 µM
S=C(NCCCc1c[nH]c2ccccc12)Nc1nccs1 [compound 565, 1-(3-(1H-indol-3-yl)propyl)-3-(thiazol-2-yl)thiourea]		100 to 1000 µM	
Cc1cccc(CCSC(=S)NCCc2c[nH]c3ccccc23)c1 [compound 20, 3-Methylphenethyl 2-(1H-indol-3-yl)ethylcarbamodithioate]		100 to 1000 µM	
